Reference: US20060100431A1, “Biologically active compounds” (Amura Therapeutics Limited, priority 2002, published 2006)

These compounds were tested against Wild-type cruzipain (Trypanosoma cruzi, UniProt P25779) (assay: Trypanosoma cruzi cruzipain peptidase activity assay (Ki)). Details: read-out: Ki, inhibitors of cruzain and cruzipains.
Format: biochemical
Method: Unless otherwise stated, all general chemicals and biochemicals were purchased from either the Sigma Chemical Company, Poole, Dorset, U.K or from Fisher Scientific UK, Loughborough, Leicestershire, U.K. Absorbance assays were carried out in flat-bottomed 96-well plates (Spectra; Greiner Bio-One Ltd., Stonehouse, Gloucestershire, U.K.) using a SpectraMax PLUS384 plate reader (Molecular Devices, Crawley, U.K.). Fluorescence high throughput assays were carried out in either 384-well microtitre plates (Corning Costar 3705 plates, Fisher Scientific) or 96-well ‘U’ bottomed Microfluor W1 microtitre plates (Thermo Labsystems, Ashford, Middlesex, U.K.). Fluorescence assays were monitored using a SpectraMax Gemini fluorescence plate reader (Molecular Devices). For substrates employing either a 7-amino-4-methylcoumarin (AMC) or a 7-amino-4-trifluoromethylcoumarin (AFC) fluorophore, assays were monitored at an excitation wavelength of 365 nm and an emission wavelength of 450 nm and the fluorescence plate reader calibrated with AMC. For substrates employing a 3-amino-benzoyl (Abz) fluorophore, assays were monitored at an excitation wavelength of 310 nm and an emission wavelength of 445 nm; the fluorescence plate reader calibrated with 3-amino-benzamide (Fluka). Unless otherwise indicated, all the peptidase substrates were purchased from Bachem UK, St Helens, Merseyside, UK. Substrates utilizing fluorescence resonance energy transfer methodology (i.e. FRET-based substrates) were synthesized at Incenta Limited using published methods (Atherton & Sheppard, Solid Phase Peptide Synthesis, IRL Press, Oxford, U.K, 1989) and employed Abz (2-aminobenzoyl) as the fluorescence donor and 3-nitro-tyrosine [Tyr(NO2)] as the fluorescence quencher (Meldal, M. and Breddam, K., Anal. Biochem, 195, 141-147, 1991). Hydroxyethylpiperazine ethanesulfonate (HEPES), tris-hydroxylmethyl aminomethane (tris) base, bis-tris-propane and all the biological detergents (e.g. CHAPS, zwittergents, etc.) were purchased from CN Biosciences UK, Beeston, Nottinghamshire, U.K. Glycerol was purchased from Amersham Pharmacia Biotech, Little Chalfont, Buckinghamshire, U.K. Stock solutions of substrate or inhibitor were made up to 10 mM in 100% dimethylsulfoxide (DMSO) (Rathburns, Glasgow, U.K.) and diluted as appropriately required. In all cases the DMSO concentration in the assays was maintained at less than 1% (vol./vol.).
Assay protocols were based on literature precedent (Table 4; Barrett, A. J., Rawlings, N. D. and Woessner, J. F., 1998, Handbook of Proteolytic Enzymes, Academic Press, London and references therein) and modified as required to suit local assay protocols. Enzyme was added as required to initiate the reaction and the activity, as judged by the change in fluorescence upon conversion of substrate to product, was monitored over time. All assays were carried out at 25±1° C.
Wild-type cruzipain, derived from Trypanosoma cruzi Dm28 epimastigotes, was obtained from Dr. Julio Scharfstein (Instituto de Biofisica Carlos Chagas Filho, Universidade Federal do Rio de Janeiro, Rio de Janeiro, Brazil). Activity assays were carried out in 100 mM sodium phosphate, pH 6.75 containing 1 mM EDTA and 10 mM L-cysteine using 2.5 nM enzyme. […] The rate of conversion of substrate to product was derived from the slope of the increase in fluorescence monitored continuously over time.
The apparent inhibition constant (Ki) for each compound was determined on the basis that inhibition was reversible and occurred by a pure-competitive mechanism. The Ki values were calculated, from the dependence of enzyme activity as a function of inhibitor concentration, by direct regression analysis (Prism v 3.02) using Equation 2 (Cornish-Bowden, A., 1995.). [formula]

Sequence of Wild-type cruzipain (P25779 whole entry): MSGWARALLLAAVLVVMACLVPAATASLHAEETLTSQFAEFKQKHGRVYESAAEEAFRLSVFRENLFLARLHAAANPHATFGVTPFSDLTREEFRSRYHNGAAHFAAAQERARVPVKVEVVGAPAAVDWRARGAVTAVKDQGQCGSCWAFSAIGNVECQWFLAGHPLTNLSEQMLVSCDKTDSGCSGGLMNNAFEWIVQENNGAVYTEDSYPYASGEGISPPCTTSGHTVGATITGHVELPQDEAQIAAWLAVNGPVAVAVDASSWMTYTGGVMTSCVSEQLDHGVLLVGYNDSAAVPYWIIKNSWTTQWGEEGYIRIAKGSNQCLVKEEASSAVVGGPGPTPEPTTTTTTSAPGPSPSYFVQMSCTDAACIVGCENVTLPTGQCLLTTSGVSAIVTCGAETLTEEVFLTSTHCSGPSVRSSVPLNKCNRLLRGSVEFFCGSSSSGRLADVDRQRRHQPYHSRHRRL

Ki, < 5 µM:
CC(C)C[C@H](NC(=O)c1ccc(C(C)(C)C)cc1)C(=O)N1CC[C@@H]2[C@H]1C(=O)CN2C(=O)c1ccccn1 [Example 4, (3aR,6aS)-4-tert-Butyl-N-{(1S)-3-methyl-1-[6-oxo-4-(pyridine-2-carbonyl)-hexahydro-pyrrolo[3,2-b]pyrrole-1-carbonyl]-butyl}-benzamide]
CC(C)(C)c1ccc(C(=O)N[C@@H](Cc2cccs2)C(=O)N2CC[C@@H]3[C@H]2C(=O)CN3C(=O)c2ccccc2)cc1 [Example 22, (3aR,6aS)-N-[(1S)-2-(4-Benzoyl-6-oxo-hexahydro-pyrrolo[3,2-b]pyrrol-1-yl)-2-oxo-1-thiophen-2-ylmethyl-ethyl]-4-tert-butyl-benzamide]
CC(C)(C)c1ccc(C(=O)N[C@@H](Cc2cccs2)C(=O)N2CC[C@@H]3[C@H]2C(=O)CN3C(=O)c2cccnc2)cc1 [Example 23, (3aR,6aS)-4-tert-Butyl-N-{(1S)-2-oxo-2-[6-oxo-4-(pyridine-3-carbonyl)-hexahydro-pyrrolo[3,2-b]pyrrole-1-yl]-1-thiophen-2-ylmethyl-ethyl}-benzamide]
CC(C)C[C@H](NC(=O)c1ccc(C(C)(C)C)cc1)C(=O)N1CC[C@@H]2[C@H]1C(=O)CN2C(=O)c1ccc2c(c1)OCCO2 [Example 30, (3aR,6aS)-4-tert-Butyl-N-{(1S)-1-[4-(2,3-dihydro-benzo[1,4]dioxine-6-carbonyl)-6-oxo-hexahydro-pyrrolo[3,2-b]pyrrole-1-carbonyl]-3-methyl-butyl}-benzamide]
CC(C)C[C@H](NC(=O)c1ccc(C(C)(C)C)cc1)C(=O)N1CC[C@@H]2[C@H]1C(=O)CN2C(=O)c1cccc2ccccc12 [Example 33, (3aR,6aS)-tert-Butyl-N-{(1)-3-methyl-1-[4-(naphthalene-1-carbonyl)-6-oxo-hexahydro-pyrrolo[3,2-b]pyrrole-1-carbonyl-]-butyl}-benzamide]
CC(C)C[C@H](NC(=O)c1ccc(C(C)(C)C)cc1)C(=O)N1CC[C@@H]2[C@H]1C(=O)CN2C(=O)c1ccccc1Cc1ccccc1 [Example 36, (3aR,6aS)-N-{(1S)-1-[4-(2-Benzyl-benzoyl)-6-oxo-hexahydro-pyrrolo[3,2-b]pyrrole-1-carbonyl]-3-methyl-butyl}-4-tert-butyl-benzamide]
CC(C)C[C@H](NC(=O)c1ccc(N(C)C)cc1)C(=O)N1CC[C@@H]2[C@H]1C(=O)CN2C(=O)c1ccc(O)cc1 [Example 49, (3aR,6aS)-4-Dimethylamino-N-{(1S)-1-[4-(4-hydroxy-benzoyl)-6-oxo-hexahydro-pyrrolo[3,2-b]pyrrole-1-carbonyl]-3-methyl-butyl}-benzamide]
CC(C)C[C@H](NC(=O)c1ccc(N(C)C)cc1)C(=O)N1CC[C@@H]2[C@H]1C(=O)CN2C(=O)c1ccc(S(C)(=O)=O)s1 [Example 51, (3aR,6aS)-4-Dimethylamino-N-{(1S)-1-[4-(5-methanesulfonyl-thiophene-2-carbonyl)-6-oxo-hexahydro-pyrrolo[3,2-b]pyrrole-1-carbonyl]-3-methyl-butyl}-benzamide]
Cc1ccccc1C(=O)N1CC(=O)[C@@H]2[C@H]1CCN2C(=O)[C@H](CC(C)C)NC(=O)c1ccc(N(C)C)cc1 [Example 53, (3aR,6aS)-4-Dimethylamino-N-{(1S)-3-methyl-1-[4-(2-methyl-benzoyl)-6-oxo-hexahydro-pyrrolo[3,2-b]pyrrole-1-carbonyl]-butyl}-benzamide]
Cc1ccc(C(=O)N2CC(=O)[C@@H]3[C@H]2CCN3C(=O)[C@H](CC(C)C)NC(=O)c2ccc(N(C)C)cc2)cc1 [Example 55, (3aR,6aS)-4-Dimethylamino-N-{(1S)-3-methyl-1-[4-(4-methyl-benzoyl)-6-oxo-hexahydro-pyrrolo[3,2-b]pyrrole-1-carbonyl]-butyl}-benzamide]
CC(C)C[C@H](NC(=O)c1ccc(N(C)C)cc1)C(=O)N1CC[C@@H]2[C@H]1C(=O)CN2C(=O)c1ccccn1 [Example 79, (3aR,6aS)-4-Dimethylamino-N-{(1S)-3-methyl-1-[6-oxo-4-(pyridine-2-carbonyl)-hexahydro-pyrrolo[3,2-b]pyrrole-1-carbonyl]-butyl}-benzamide]
CC(C)C[C@H](NC(=O)c1ccc(N(C)C)cc1)C(=O)N1CC[C@@H]2[C@H]1C(=O)CN2C(=O)c1cccc[n+]1[O-] [Example 80]
CC(C)C[C@H](NC(=O)c1ccc(N(C)C)cc1)C(=O)N1CC[C@@H]2[C@H]1C(=O)CN2C(=O)c1ccc[n+]([O-])c1 [Example 81, (3aR,6aS)-4-Dimethylamino-N-{(1S)-3-methyl-1-[6-oxo-4-(1-oxy-pyridine-3-carbonyl)-hexahydro-pyrrolo[3,2-b]pyrrole-1-carbonyl]-butyl}-benzamide]
CC(C)C[C@H](NC(=O)c1ccc(N(C)C)cc1)C(=O)N1CC[C@@H]2[C@H]1C(=O)CN2C(=O)c1ccc(N2CCOCC2)nc1 [Example 94, (3aR,6aS)-4-Dimethylamino-N-{(1S)-3-methyl-1-[4-(6-morpholin-4-yl-pyridine-3-carbonyl)-6-oxo-hexahydro-pyrrolo[3,2-b]pyrrole-1-carbonyl]-butyl}-benzamide]
CC(C)C[C@H](NC(=O)c1ccc(N(C)C)cc1)C(=O)N1CC[C@@H]2[C@H]1C(=O)CN2C(=O)C1CCC1 [Example 133, (3aR,6aS)-N-[(1S)-1-(4-Cyclobutanecarbonyl-6-oxo-hexahydro-pyrrolo[3,2-b]pyrrole-1-carbonyl)-3-methyl-butyl]-4-dimethylamino-benzamide]
CC(C)C[C@H](NC(=O)c1ccc(N(C)C)cc1)C(=O)N1CC[C@@H]2[C@H]1C(=O)CN2C(=O)C1CCCNC1 (stereo partly drawn) [Example 140, (3aR,6aS)-4-Dimethylamino-N-{(1S)-3-methyl-1-[6-oxo-4-(piperidine-3-carbonyl)-hexahydro-pyrrolo[3,2-b]pyrrole-1-carbonyl]-butyl}-benzamide]
CC(C)C[C@H](NC(=O)c1ccc(N(C)C)cc1)C(=O)N1CC[C@@H]2[C@H]1C(=O)CN2C(=O)[C@@H]1CCCN1 [Example 156, (3aR,6aS)-4-Dimethylamino-N-{(1S)-3-methyl-1-[6-oxo-4-((2S)-pyrrolidine-2-carbonyl)-hexahydro-pyrrolo[3,2-b]pyrrole-1-carbonyl]-butyl}-benzamide]
CC(C)C[C@H](NC(=O)c1ccc(N(C)C)cc1)C(=O)N1CC[C@@H]2[C@H]1C(=O)CN2C(=O)[C@H]1CCCN1 [Example 157, (3aR,6aS)-4-Dimethylamino-N-{(1S)-3-methyl-1-[6-oxo-4-((2R)-pyrrolidine-2-carbonyl)-hexahydro-pyrrolo[3,2-b]pyrrole-1-carbonyl]-butyl}-benzamide]
CC(C)C[C@H](NC(=O)c1ccc(N(C)C)cc1)C(=O)N1CC[C@@H]2[C@H]1C(=O)CN2C(=O)[C@H](C)N [Example 162, (3aR,6aS)-N-{(1S)-1-[4-((2S)-2-Amino-propionyl)-6-oxo-hexahydro-pyrrolo[3,2-b]pyrrole-1-carbonyl]-3-methyl-butyl}-4-dimethylamino-benzamide]
CC(C)C[C@H](NC(=O)c1ccc(N(C)C)cc1)C(=O)N1CC[C@@H]2[C@H]1C(=O)CN2C(=O)c1ccccc1OC(F)(F)F [Example 168, (3aR,6aS)-4-Dimethylamino-N-{(1S)-3-methyl-1-[6-oxo-4-(2-trifluoromethoxy-benzoyl)-hexahydro-pyrrolo[3,2-b]pyrrole-1-carbonyl]-butyl}-benzamide]
COC(=O)NCC(=O)N1CC(=O)[C@@H]2[C@H]1CCN2C(=O)[C@H](CC(C)C)NC(=O)c1ccc(N(C)C)cc1 [Example 183, (3aS,6aR)-(2-{4-[(2S)-2-(4-Dimethylamino-benzoylamino)-4-methyl-pentanoyl]-3-oxo-hexahydro-pyrrolo[3,2-b]pyrrole-1-yl}-2-oxo-ethyl)-carbamic acid methyl ester]
